These results are taken from paper PMC11982498 (Redox Biology, 2025).

The term KD denotes the free concentration of one partner at which half of the binding sites on the other are occupied at equilibrium, for simple one-to-one binding. A high value points to a looser complex. Broadly, the IC50 is the concentration needed to halve the response being measured.

The test system of series [1] is BCL-2 gene transcription in SH-SY5Y cells. Nature of the series: Real-time RT-PCR in 25 μM Aβ1-42 cell model, BCL-2. The class given is cell-based, human. The procedure:
SH-SY5Y cells were treated with or without B14, and total RNA was subsequently isolated and purified. Reverse transcription was performed using a cDNA synthesis kit. The relative transcription levels of the genes were evaluated through quantitative real-time PCR using the SYBR Green-based method, as described in the Supplementary Date. Details regarding the primer sequences and the raw data can be found in Table S7 and Table S8.
^a -∆∆Ct = -[(Ct value of genes in treated sample - Ct value of genes in control) - (Ct value of β-actin in treated sample - Ct value of β-actin in control)]. ^b F: The relative expression fold.
Experiment 2: The Ct values of BCL-2 and Bax in 25 μM Aβ1-42 model with different concentration of B14.
Total RNA was extracted from cells and mice liver tissue using RNAiso Plus (Takara, 9109, Japan). Following sample homogenization, chloroform was added, and the solution was allowed to have phase separation into an upper aqueous layer (containing RNA), an interphase, and a lower organic layer (containing DNA and proteins). RNA was precipitated from the aqueous phase using isopropanol, while DNA was precipitated from the aqueous-organic interphase using ethanol. Complementary DNA (cDNA) was synthesized using the One-Step RT-PCR Kit (Takara, Cat#639503, Japan).
Quantitative real-time polymerase chain reaction (qRT-PCR) was performed using the 2× RealStar SYBR Mixture (GenStar, Cat# A301-10, Guangzhou, China) on a LightCycler 480 II real-time PCR system (Roche, USA). Data were analyzed using the 2^−ΔΔCt method. Actin served as the internal control, and relative mRNA levels were normalized accordingly.
Background: In qPCR the cycle at which signal appears reflects the starting amount.

The test system of series [2] is BAX, Cleaved Caspase 3, Cleaved Caspase 9, Cyto-C, Apaf-1 in SH-SY5Y cells. Kind of series: Western blot of apoptosis related proteins in Aβ1-42 induced cell model. Format: cell-based. The settings on record: 25 μM Aβ1-42 induced model. As to the method:
Protein samples (25–40 μg) were separated using 10 % SDS-PAGE and subsequently transferred onto PVDF membranes (0.22 μm, Servicebio, Guangzhou, China) via electro transfer. Following blocking with TBST solution (Servicebio, Guangzhou, China) containing 5 % BSA (Solarbio, Beijing, China) for approximately 60 min at room temperature, the membrane was exposed to various primary antibodies overnight at 4 °C on a rotating shaker. Then, the membranes were incubated with HRP-conjugated secondary antibody (Affinity, Changzhou, China) for 2 h. Protein bands were then detected using an ECL kit. The signal intensity of each target protein was quantified using Image J 1.8.0 software (Bio-Rad Laboratories, California, USA).
Primary antibodies for Western blot analysis include BCL-2 (affinity biosciences OH, Cat# AF6139, USA), BAX (affinity biosciences OH, Cat# AF0120, USA), VEGF (affinity biosciences OH, Cat# AF5131, USA), C-MYC (affinity biosciences OH, Cat# AF0358, USA), Caspase9 (affinity biosciences OH, Cat# AF6348, USA), cleaved-Caspase9 (affinity biosciences OH, Cat# AF5240, USA), Caspase3 (affinity biosciences OH, Cat# AF6311, USA), cleaved-Caspase3 (affinity biosciences OH, Cat# AF7022, USA), and Cyto-C (affinity biosciences OH, Cat# AF6139, USA).

In the next series the target is T1, Aβ1-42 (Homo sapiens, UniProt P05067).
T1 construct: Aβ1-42 was purchased from Gill Biochemicals Ltd (Shanghai, China); purchased Gill Biochemicals Ltd (Shanghai, China)
Nature of the series: Dot blot of Aβ1-42 fibril aggregation. The class given is biochemical. The settings on record: 20 μM compound, 24 h.

For a further series, the system named is HRAS promoter i-motif. Nature of the series: TO displacement assay, HRAS i-motif. Format: binding. The procedure:
DNA oligonucleotides were diluted to 1 μM with 1 × PBES buffer at pH 5.5, annealed at 95 °C for 10 min, cooled to room temperature, and stored at 4 °C for future use. TO dye (1 μM) was added to the DNA solution followed with incubation for 1 h. The spectra of 100 μL mixture with addition of different equivalent compounds at 25 °C were recorded based on fluorescence emission (λex = 480 nm).
TO displacement ratio (%) = (F0 − FC) / (F0 − FB) * 100.
F0 and FC were the fluorescence intensity of TO at 536 nm with DNA before and after adding compounds, respectively. FB was the fluorescence intensity of TO at 536 nm with buffer only.

The subject of series [3] is F-BCL-2(G4) (DNA, G4) AGGGGCGGGCGCGGGAGGAAGGGGGCGGGAGCGGGGCTG
Kind of series: MST. The settings on record: K+ 100 mM; 50 mM Tris-HCl, pH 7.4; highest B14 concentration 50 μM.

For the next series, the system named is SH-SY5Y cells. Kind of series: MTT cytotoxicity assay, SH-SY5Y. The class given is cell-based. As to the method: SH-SY5Y cells, HepG2 cells, HK-2 cells and HT-22 cells were seeded on 96-well plates (5.0×10^3 per well) with 100 μL of culture medium, and incubated for 12 h at 37 °C in a humidified atmosphere with 5% CO2, and then exposed to various concentrations of B14. After 48 h of treatment at 37 °C in a humidified atmosphere with 5% CO2, 100 μL of 0.5 mg/mL MTT solution was added to each well, and the mixture was further incubated for 4 h. The cells in each well were then treated with DMSO (200 μL for each well), and the culture medium was siphoned off, and the absorbance was recorded at 570 nm. All drug doses were parallel tested in triplicate, and the cytotoxicity was evaluated based on the percentage of cell survival in a dose-dependent manner regarding the negative control. The final IC50 values were determined by using Graph Pad Prism 9.0.

The subject of series [4] is BCL-2(G4) (DNA, G4) AGGGGCGGGCGCGGGAGGAAGGGGGCGGGAGCGGGGCTG
Nature of the series: ESI-MS. The settings on record: K+ 100 mM KCl plus potassium phosphate; BPES buffer, pH 7.4; no adduct peak.

T1 sequence (P05067 672-713 limits assumed): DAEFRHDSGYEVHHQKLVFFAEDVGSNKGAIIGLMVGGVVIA

For `O=C(CCN1CCOCC1)Nc1ccc2c(c1)c(=O)c1cc(NC(=O)CCN3CCOCC3)ccc1n2-c1ccc2occc2c1` [Compound B14], the “-∆∆Ct, BCL-2” value is on record as -0.05 in series [1] (25 μM Aβ1-42 + 6.25 μM B14), -0.48 in series [1] (25 μM Aβ1-42 + 12.5 μM B14) and -0.82 in series [1] (25 μM Aβ1-42 + 25 μM B14). Besides, the “F = 2^-∆∆Ct (relative expression fold), BCL-2” value in series [1] (25 μM Aβ1-42 + 6.25 μM B14) amounted to 1.04; in series [1] (25 μM Aβ1-42 + 12.5 μM B14) it was 1.40; in series [1] (25 μM Aβ1-42 + 25 μM B14), 1.76. Besides, the “levels of pro-apoptotic proteins (Western blot)” value in series [2] is listed as “decreased levels of pro-apoptotic proteins”. Also, at Aβ1-42, the “formation of Aβ fibers (dot blot)” value was “reduced the formation of Aβ fibers and greatly decreased Aβ self-aggregation”. For the same molecule, the TO displacement ratio with HRAS promoter i-motif is 16%. For the same molecule, the KD in series [3] was 59.75 µM. For the same molecule, the “toxicity to SH-SY5Y cells (viability)” value in the series on SH-SY5Y cells is reported as “no significant toxicity to SH-SY5Y cells”. This molecule also returned an IC50 in the series on SH-SY5Y cells (Homo sapiens, SH-SY5Y, incubation for 48 h) greater than 100 µM. In series [4], the binding entry is reported as “no”.
